Measured values published in US12637414B2, “Arylamides and methods of use thereof” (Genzyme Corporation, priority 2019, dated 2026).

Molecular target: T1, human Cystic Fibrosis Transmembrane Conductance Regulator (CFTR) harboring the ΔF508 mutation (Homo sapiens, UniProt P13569, DEL508-508)
T1 construct: expressed in transfected cells; host or cells: H441 carcinoma line (G418 selection)
Test: H441 cell Emax and EC50: HRP-tagged ΔF508-CFTR cell surface luminescence assay
Format: cell-based
Details: H441 cells expressing ΔF508-CFTR-HRP, 27° C., two nights; for EC50: 15-point dose-response, top 24.5 μM; for Emax: NCI-H441, % of maximum VX809 signal
Text: Two cell lines were used, the H441 carcinoma line and the CFHBE41o-(41o-) human bronchial epithelial line. Both cell lines expressed human Cystic Fibrosis Transmembrane Conductance Regulator (CFTR) harboring the ΔF508 mutation and with an in-frame fusion in CFTR extracellular loop 4 of Horse Radish Peroxidase (HRP) under control of the CMV promoter. In the presence of the HRP tag, ΔF508-CFTR transported to the cell surface was detectable upon addition of an HRP substrate (Luminata Forte). Both cell types were cultivated at 37° C. with CO2.
For both cell types, the medium was changed every other day unless the culture was at low % confluence. Cells were used for the assays at ˜75% confluence.
To a polypropylene (PP) 384-well plate, 15 μls DMSO was added to all wells in columns 1-22 and 24 (low Control). 15 μls of 260 μM VX809 (Lumacaftor), Selleckchem S1565, was added to column 23 wells (high Control). 15 μls of 10 mM test compound or VX809 (control) were added to wells of row A. Serial dilutions of Row A compound were performed 2×15 μls in rows A through O (15-point).
A PP, 384-well plate containing the appropriate cell culture medium was prepared for each assay plate with 100 μls per well. For the doxycycline-induced 41o-cells, doxycycline for both the assay plate and the medium dilution plate was added at 0.0005 mg/ml to the medium.
Both cell lines were plated for the assay at 30 uls per 384-well at 3.4×10^e5 cells per ml (˜10K cells/well). H441 cells were plated on opaque, white, Corning plate 3704. 41o-cells were plated on collagen-coated opaque, white, Corning plate 356665. For 41o-cells, doxycycline was added to the medium.
Using FX (Beckman) protocol, 10 uls diluted compound or medium was added per well to the Assay Plate as: 2 μls DMSO Dilution plate well is diluted in 100 uls of the Medium Dilution Plate well, mixed, and 10 uls is transferred to the Assay Plate.
The final assay dilution series is 24.5, 12.3, 6.1, 3.1, 1.5, 0.8, 0.4, 0.2, 0.1, 0.05, 0.02, 0.01, 0.006, 0.003, 0.001 and 0 μM. The 41o-assay plates were incubated at 37° C. w/CO2, the H441 assay plates were incubated at 27° C. w/CO2, each overnight for two nights.
After being brought to room temperature, the assay plate liquid was removed. 30 μls of Luminata Forte (Millipore ELLUF0100) was added per well and incubated at room temperature for 10 min. The plates were then read on a Topcount, protocol LumiMatti (CPS, luminescence). The data was analyzed for % of maximum, maximum VX809 signal, and EC50 using Pearl and SPEED tools.

T1 sequence (P13569 with tags, fused parts or gaps DEL508-508): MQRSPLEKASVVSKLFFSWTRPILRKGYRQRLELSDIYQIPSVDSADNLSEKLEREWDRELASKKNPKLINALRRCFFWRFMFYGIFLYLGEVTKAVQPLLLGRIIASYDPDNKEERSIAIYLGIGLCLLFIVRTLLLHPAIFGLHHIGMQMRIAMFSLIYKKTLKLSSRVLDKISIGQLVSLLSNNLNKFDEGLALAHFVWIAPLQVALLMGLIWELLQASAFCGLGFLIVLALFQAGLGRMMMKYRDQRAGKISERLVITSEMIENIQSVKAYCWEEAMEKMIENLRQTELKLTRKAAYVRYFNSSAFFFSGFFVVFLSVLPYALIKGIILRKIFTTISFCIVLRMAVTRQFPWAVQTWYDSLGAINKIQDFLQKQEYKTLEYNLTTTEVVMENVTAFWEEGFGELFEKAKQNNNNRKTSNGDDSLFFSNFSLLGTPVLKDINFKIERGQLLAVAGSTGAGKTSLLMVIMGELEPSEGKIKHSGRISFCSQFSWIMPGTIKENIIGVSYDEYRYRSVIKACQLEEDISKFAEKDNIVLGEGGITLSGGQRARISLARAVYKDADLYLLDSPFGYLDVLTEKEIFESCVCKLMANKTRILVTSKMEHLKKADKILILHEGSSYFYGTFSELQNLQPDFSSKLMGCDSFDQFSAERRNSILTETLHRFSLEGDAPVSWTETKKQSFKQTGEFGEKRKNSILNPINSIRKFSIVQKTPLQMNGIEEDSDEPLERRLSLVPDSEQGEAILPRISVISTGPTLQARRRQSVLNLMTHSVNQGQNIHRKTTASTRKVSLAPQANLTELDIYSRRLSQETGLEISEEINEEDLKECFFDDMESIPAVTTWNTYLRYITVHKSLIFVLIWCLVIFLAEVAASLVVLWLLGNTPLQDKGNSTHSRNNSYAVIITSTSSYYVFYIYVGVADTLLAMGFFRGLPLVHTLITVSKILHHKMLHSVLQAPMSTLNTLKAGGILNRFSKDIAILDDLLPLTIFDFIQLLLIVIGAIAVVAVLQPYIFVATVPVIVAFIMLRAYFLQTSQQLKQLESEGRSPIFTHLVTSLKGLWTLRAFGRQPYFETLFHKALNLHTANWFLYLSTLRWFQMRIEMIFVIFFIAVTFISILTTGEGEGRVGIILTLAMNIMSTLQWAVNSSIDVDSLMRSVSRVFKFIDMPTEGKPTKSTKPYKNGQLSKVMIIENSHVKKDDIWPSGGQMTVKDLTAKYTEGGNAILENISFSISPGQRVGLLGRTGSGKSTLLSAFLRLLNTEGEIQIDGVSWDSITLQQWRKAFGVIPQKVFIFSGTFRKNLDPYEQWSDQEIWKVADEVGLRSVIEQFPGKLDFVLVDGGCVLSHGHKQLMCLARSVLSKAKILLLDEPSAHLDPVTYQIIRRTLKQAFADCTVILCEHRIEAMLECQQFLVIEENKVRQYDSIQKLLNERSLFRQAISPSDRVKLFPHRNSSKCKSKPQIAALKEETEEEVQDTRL

Row | SMILES | EC50 [nM] | Emax [%]
1 | O=C(N[C@H](C(=O)O)C12CC3CC(CC(C3)C1)C2)c1ccc2cc(F)ccc2c1OCc1ccc(SC(F)(F)F)cc1 [compound 57] | 296 | 92.5
2 | O=C(N[C@H](C(=O)O)C12CC3CC(CC(O)(C3)C1)C2)c1ccc2ccccc2c1OCC1CCC(F)(F)CC1 [compound 53] | 7220 | 74.1
3 | COC(=O)[C@@H](NC(=O)c1ccc2ccccc2c1OCc1ccc(C(F)(F)F)cc1)C12CC3CC(CC(O)(C3)C1)C2 [compound 14] | ≥ 24500 | 29.9
4 | O=C(N[C@H](C(=O)O)C12CC3CC(CC(C3)C1)C2)c1ccc2occc2c1OCC1CCCCC1 [compound 116, (2S)-2-(1-adamantyl)-2-[[4-(cyclohexylmethoxy)benzofuran-5-carbonyl]amino]acetic acid] | 1770 | 212
5 | O=C(N[C@H](C(=O)O)C12CC3CC(CC(O)(C3)C1)C2)c1ccc2sccc2c1OCc1ccc(OC(F)(F)F)cc1 [compound 109, (2S)-2-(3-hydroxy-1-adamantyl)-2-[[4-[[4-(trifluoromethoxy)phenyl]methoxy]benzothiophene-5-carbonyl]amino]acetic acid] | 1760 | 121
6 | O=C(N[C@H](C(=O)O)C12CC3CC(Cl)(CC(Cl)(C3)C1)C2)c1ccc2ccccc2c1OCc1ccc(SC(F)(F)F)cc1 [compound 81] | 113 | 158
7 | O=C(N[C@H](C(=O)O)C12CC3CC(CC(C3)C1)C2)c1ccc2cc(F)ccc2c1OCc1ccc(S(F)(F)(F)(F)F)cc1 [compound 56] | 236 | 89.7
8 | O=C(N[C@H](C(=O)O)C12CC3CC(CC(O)(C3)C1)C2)c1ccc2cc(F)ccc2c1OCc1ccc(SC(F)(F)F)cc1 [compound 4] | 991 | 55.7
9 | CC(C)OC(=O)[C@@H](NC(=O)c1ccc2ccccc2c1OCc1ccc(C(F)(F)F)cc1)C12CC3CC(CC(C3)C1)C2 [compound 74] | – | 4
10 | O=C(N[C@H](C(=O)O)C12CC3CC(CC(Br)(C3)C1)C2)c1ccc2ccccc2c1OCc1ccc(C(F)(F)F)cc1 [compound 54] | 153 | 147
11 | O=C(N[C@H](C(=O)O)C12CC3CC(CC(C3)C1)C2)c1ccc2cc(F)ccc2c1OCC1CCC(F)(F)CC1 [compound 16] | 1750 | 90
12 | O=C(N[C@H](C(=O)O)C12CC3CC(CC(Br)(C3)C1)C2)c1ccc2cccnc2c1OCc1ccc(C(F)(F)F)cc1 [compound 67] | 879 | 134
13 | O=C(N[C@H](C(=O)O)C12CC3CC(CC(C3)C1)C2)c1ccc2sccc2c1OCc1ccc(Cl)c(Cl)c1 [compound 110, (2S)-2-(1-adamantyl)-2-[[4-[(3,4-dichlorophenyl)methoxy]benzothiophene-5-carbonyl]amino]acetic acid] | 382 | 173
14 | CC(=O)COC12CC3CC(C1)CC([C@H](NC(=O)c1ccc4cc(F)ccc4c1OCc1ccc(C(F)(F)F)cc1)C(=O)O)(C3)C2 [compound 66] | 1380 | 84.2
15 | C[C@H]1N(Cc2ccc(C(F)(F)F)cc2)c2c(ccc3ccccc23)C(=O)N1[C@H](C(=O)O)C12CC3CC(CC(C3)C1)C2 [compound 129, (2S)-2-(1-adamantyl)-2-[(2S)-2-methyl-4-oxo-1-[[4-(trifluoromethyl)phenyl]methyl]-2H-benzo[h]quinazolin-3-yl]acetic acid] | 90 | 34.9
16 | Cc1ccc2ccc(C(=O)N[C@H](C(=O)O)C34CC5CC(CC(C5)C3)C4)c(OCc3ccc(C(F)(F)F)cc3)c2c1 [compound 18] | 2180 | 370

Row | SMILES | EC50 [nM] | Emax [%]
17 | O=C(N[C@H](C(=O)O)C12CC3CC(CC(C3)C1)C2)c1sc2cc(Cl)ccc2c1OCc1ccc(C(F)(F)F)cc1 [compound 32] | 396 | 105
18 | O=C(N[C@H](C(=O)O)C12CC3CC(CC(C3)C1)C2)c1sc2ccccc2c1OCc1nc2ccccc2s1 [compound 95] | 939 | 156
19 | O=C(N[C@H](C(=O)O)C12CC3CC(CC(C3)C1)C2)c1ccc2ccccc2c1OCc1ccc(OC(F)(F)F)cc1 [compound 8] | 1400 | 176
20 | O=C(N[C@H](C(=O)O)C12CC3CC(CC(C3)C1)C2)c1ccc2cc(F)ccc2c1OCc1ccc(OC(F)(F)F)cc1 [compound 88] | – | -9.7
21 | O=C(O)[C@@H](N1CN(Cc2ccc(C(F)(F)F)cc2)c2c(ccc3ccccc23)C1=O)C12CC3CC(CC(C3)C1)C2 [compound 125, (2S)-2-(1-adamantyl)-2-[4-oxo-1-[[4-(trifluoromethyl)phenyl]methyl]-2H-benzo[h]quinazolin-3-yl]acetic acid] | 109 | 66
22 | O=C(N[C@H](C(=O)O)C12CC3(Cl)CC(Cl)(CC(Cl)(C3)C1)C2)c1ccc2ccccc2c1NCc1ccc(SC(F)(F)F)cc1 [compound 127, (2S)-2-(3,5,7-trichloro-1-adamantyl)-2-[[1-[[4-(trifluoromethylsulfanyl)phenyl]methylamino]naphthalene-2-carbonyl]amino]acetic acid] | 625 | 75.5
23 | COc1cccc2c(OCc3ccc(C(F)(F)F)cc3)c(C(=O)N[C@H](C(=O)O)C34CC5CC(CC(C5)C3)C4)ccc12 [compound 12] | 709 | 154
24 | O=C(N[C@H](C(=O)O)C12CC3CC(CC(C3)C1)C2)c1ccc2ccccc2c1OCC1(C(F)(F)F)CC1 [compound 102, (2S)-2-(1-adamantyl)-2-[[1-[[1-(trifluoromethyl)cyclopropyl]methoxy]naphthalene-2-carbonyl]amino]acetic acid] | 18000 | 53.1
25 | O=C(N[C@H](C(=O)O)C12CC3CC(CC(C3)C1)C2)c1ccc2occc2c1OCc1ccc(C(F)(F)F)cc1 [compound 128, (2S)-2-(1-adamantyl)-2-[[4-[[4-(trifluoromethyl)phenyl]methoxy]benzofuran-5-carbonyl]amino]acetic acid] | 244 | 133
26 | O=C(N[C@H](C(=O)O)C12CC3CC(CC(C3)C1)C2)c1ccc2cc(O)ccc2c1OCc1ccc(C(F)(F)F)cc1 [compound 37] | 155 | 132
27 | COC12CC3CC(C1)CC([C@H](NC(=O)c1ccc4ccccc4c1OCc1ccc(C(F)(F)F)cc1)C(=O)O)(C3)C2 [compound 85] | 375 | 131
28 | O=C(N[C@H](C(=O)O)C12CC3CC(CC(C3)C1)C2)c1ccc2ccccc2c1OCc1ccc(S(F)(F)(F)(F)F)cc1 [compound 47] | 449 | 148
29 | O=C(N[C@H](C(=O)O)C12CC3CC(CC(C3)C1)C2)c1sc2ccccc2c1OCc1ccc(Cl)c(Cl)c1 [compound 24] | 726 | 159
30 | O=C(N[C@H](C(=O)O)C12CC3CC(CC(C3)C1)C2)c1ccc2sccc2c1OCc1ccc(OC(F)(F)F)cc1 [compound 111, (2S)-2-(1-adamantyl)-2-[[4-[[4-(trifluoromethoxy)phenyl]methoxy]benzothiophene-5-carbonyl]amino]acetic acid] | 261 | 165
31 | O=C(N[C@H](C(=O)O)C12CC3CC(CC(C3)C1)C2)c1ccc2cccnc2c1OCC1CCCCC1 [compound 5] | 1160 | 249
32 | CC(C)OC12CC3CC(C1)CC([C@H](NC(=O)c1ccc4ccccc4c1OCc1ccc(C(F)(F)F)cc1)C(=O)O)(C3)C2 [compound 11] | 401 | 157
